Assays:
[1] = system: HCT-116; experiment: Antiproliferative activity against human HCT-116 cells assessed as inhibition of cell growth incubated for 48 hrs by MTT assay; type: functional, cell-based; details: HCT-116, 48 h
[2] = system: A549; experiment: Antiproliferative activity against human A549 cells assessed as inhibition of cell growth incubated for 48 hrs by MTT assay; type: functional, cell-based; details: A549, 48 h
[3] = system: MDA-MB-231; experiment: Antiproliferative activity against human MDA-MB-231 cells assessed as inhibition of cell growth incubated for 48 hrs by MTT assay; type: functional, cell-based; details: MDA-MB-231, 48 h
[4] = target: T1, Alpha amylase (Homo sapiens, UniProt P0DUB6); experiment: Inhibition of alpha-amylase (unknown origin) using starch as substrate preincubated with substrate for 15 mins followed by compound addition and measured after 15 mins by UV-VIS spectrophotometric analysis
T1 sequence (P0DUB6 whole entry): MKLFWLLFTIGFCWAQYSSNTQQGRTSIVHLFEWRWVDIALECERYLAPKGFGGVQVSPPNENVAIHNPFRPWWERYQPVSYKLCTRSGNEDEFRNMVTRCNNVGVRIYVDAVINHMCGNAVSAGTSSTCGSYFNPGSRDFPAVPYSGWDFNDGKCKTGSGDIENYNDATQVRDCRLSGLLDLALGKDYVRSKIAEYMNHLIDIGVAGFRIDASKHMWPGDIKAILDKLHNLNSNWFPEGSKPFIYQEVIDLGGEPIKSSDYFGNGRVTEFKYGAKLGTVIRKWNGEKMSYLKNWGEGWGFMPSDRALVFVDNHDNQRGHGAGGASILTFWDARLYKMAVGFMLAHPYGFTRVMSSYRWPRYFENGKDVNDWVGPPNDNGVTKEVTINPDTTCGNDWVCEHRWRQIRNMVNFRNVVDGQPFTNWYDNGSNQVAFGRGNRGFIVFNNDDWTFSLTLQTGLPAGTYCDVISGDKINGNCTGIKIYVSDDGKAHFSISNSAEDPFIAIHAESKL

[5] = target: T1, Alpha amylase; experiment: Inhibition of alpha-amylase (unknown origin) using p-nitrophenylR-D-maltoside as substrate incubated for 30 mins by […]
[6] = target: T1, Alpha amylase; experiment: Inhibition of alpha-amylase (unknown origin) using starch as substrate incubated for 30 mins by microplate reader analysis
[7] = system: COc1cc(/C=N/NC(=O)c2csc(Nc3ccc([N+](=O)[O-])cc3)n2)cc(OC)c1OC; experiment: (§1) Uncompetitive inhibition of alpha-amylase (unknown origin) using starch as substrate assessed as decrease in Vmax incubated for 30 mins by UV-visible spectrophotometric analysis; details: Homo sapiens
[8] = system: O=C(N/N=C/c1ccc(O)cc1)c1csc(Nc2ccc([N+](=O)[O-])cc2)n1; experiment: as §1; details: Homo sapiens
[9] = system: O=C(N/N=C/c1ccc(Cl)cc1)c1csc(Nc2ccc([N+](=O)[O-])cc2)n1; experiment: as §1; details: Homo sapiens
[10] = system: COc1cc(/C=N/NC(=O)c2csc(Nc3ccc([N+](=O)[O-])cc3)n2)ccc1O; experiment: as §1; details: Homo sapiens
[11] = system: COc1cc(/C=N/NC(=O)c2csc(Nc3ccc([N+](=O)[O-])cc3)n2)cc(OC)c1OC; experiment: (§2) Uncompetitive inhibition of alpha-amylase (unknown origin) using starch as substrate assessed as decrease in Km incubated for 30 mins by UV-visible spectrophotometric analysis; details: Homo sapiens
[12] = system: O=C(N/N=C/c1ccc(O)cc1)c1csc(Nc2ccc([N+](=O)[O-])cc2)n1; experiment: as §2; details: Homo sapiens
[13] = system: O=C(N/N=C/c1ccc(Cl)cc1)c1csc(Nc2ccc([N+](=O)[O-])cc2)n1; experiment: as §2; details: Homo sapiens
[14] = system: COc1cc(/C=N/NC(=O)c2csc(Nc3ccc([N+](=O)[O-])cc3)n2)ccc1O; experiment: as §2; details: Homo sapiens
[15] = target: T1, Alpha amylase; experiment: Inhibition of alpha-amylase (unknown origin)
[16] = system: MCF-10A; experiment: Cytotoxicity against human MCF-10A assessed as reduction in cell viability upto 10 uM incubated for 48 hrs by MTT assay; type: toxicity, cell-based
[17] = system: A549; experiment: Induction of ROS in human A549 cells at sub IC50 concentration incubated for 24 hrs by H2DCFDA dye based fluorescence assay (reference value: 33.28%); type: functional

Compound	IC50 [1]	IC50 [2]	IC50 [3]	IC50 [4]	also measured
O=C(N/N=C/c1ccc(O)cc1)c1csc(Nc2ccc(Cl)cc2)n1	5.67 µM	7.43 µM	15.7 µM	0.41 µM	–
O=C(N/N=C/c1ccccc1)c1csc(Nc2ccc(Cl)cc2)n1	7.62 µM	6.49 µM	3.89 µM	0.38 µM	–
Cc1ccc(-c2csc(N/N=C(/CSc3nnc4c(n3)[nH]c3ccccc34)c3ccc([N+](=O)[O-])cc3)n2)cc1	–	–	–	–	IC50 [5]: 1.2 µM
COc1cc(/C=N/NC(=O)c2csc(Nc3ccccc3)n2)ccc1O	10.1 µM	12 µM	14.5 µM	0.41 µM	–
C#Cc1cccc(Nc2ncnc3cc(OCCOC)c(OCCOC)cc23)c1 [ERLOTINIB]	1.11 µM	1.23 µM	2.54 µM	–	–
Cc1cccc(-c2nc3scc(-c4cccc([N+](=O)[O-])c4)n3n2)c1	–	–	–	–	IC50 [6]: 1.1 µM
COc1ccc(Nc2nc(C(=O)N/N=C/c3ccccc3)cs2)cc1	4.32 µM	6.32 µM	> 25 µM	0.49 µM	–
Alpha amylase (Homo sapiens) (from UniProt P0DUB6)	–	–	–	–	Vmax [7]: 3.24 µmol/min; Vmax [8]: 0.916 µmol/min; Vmax [9]: 1.56 µmol/min; Vmax [10]: 1.81 µmol/min; Km [11]: 1190 µM; Km [12]: 830 µM; Km [13]: 804 µM; Km [14]: 1030 µM
COc1ccc(Nc2nc(C(=O)N/N=C/c3cccc(N)c3)cs2)cc1	14.9 µM	10 µM	> 25 µM	0.46 µM	–
COc1ccc(/C=N/NC(=O)c2csc(Nc3ccc(O)cc3)n2)cc1OC	5.99 µM	4.98 µM	5.56 µM	0.39 µM	–
NNC(=O)c1csc(N/N=C/c2cccc(Br)c2)n1	–	–	–	–	IC50 [15]: 31 µg/mL
O=C(N/N=C/c1ccc(Cl)cc1)c1csc(Nc2ccc(Cl)cc2)n1	17.2 µM	14 µM	> 25 µM	0.39 µM	–
COc1ccc(/C=N/NC(=O)c2csc(Nc3ccc(OC)cc3)n2)cc1	7.83 µM	7.88 µM	6.89 µM	0.47 µM	–
COc1ccc(/C=N/NC(=O)c2csc(Nc3ccc([N+](=O)[O-])cc3)n2)cc1	4.65 µM	8.97 µM	14 µM	0.32 µM	–
O=C(N/N=C/c1ccc(O)c(O)c1)c1csc(Nc2ccc(Cl)cc2)n1	5.43 µM	5.09 µM	5.6 µM	0.39 µM	–
O=C1CS/C(=N\N=C\c2ccc(OS(=O)(=O)c3ccccc3[N+](=O)[O-])cc2)N1	–	–	–	–	IC50 [15]: 42.8 µM
COc1cc(/C=N/NC(=O)c2csc(Nc3ccc([N+](=O)[O-])cc3)n2)ccc1O	2.43 µM	1.99 µM	4.98 µM	0.24 µM	Activity [16]: Non-Toxic; Activity [17]: 27.19%
O=C(N/N=C/c1cccc(F)c1)c1csc(Nc2ccccc2)n1	9.48 µM	8.42 µM	7.77 µM	0.43 µM	–
O=[N+]([O-])c1ccc(/C(CSc2nnc3c(n2)[nH]c2ccccc23)=N\Nc2nc(-c3ccc([N+](=O)[O-])cc3)co2)cc1	–	–	–	–	IC50 [5]: 1.2 µM
